Laboratory results taken from PubChem BioAssay AID192 (DTP/NCI, 2004).
Values joined by “and” are separate entries in the source; they are usually repeats but may differ in a detail not shown here. Equal entries are not always repeated. Toxic doses and inconclusive results are not listed.

Test system: BDF1 mice, B16 melanoma ip, median survival T/C
Experiment: NCI In Vivo Anticancer Drug Screen. Data for tumor model B16 Melanoma (intraperitoneal) in B6D2F1 (BDF1) mice
Conditions: endpoint: median survival time, schedule: Q01DX009 (ip), higher = longer survival
Method in brief: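 Read-out: survival or tumor size, given as treated/control ratio. Controls received vehicle only; animals bore transplantable tumors.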

[1] = dose: 25.0 mg/kg/injection, vehicle: saline
[2] = dose: 6.25 mg/kg/injection, vehicle: saline with Tween-80
[3] = dose: 50.0 mg/kg/injection, vehicle: Klucel (hydroxypropylcellulose) (HPC)
[4] = dose: 100.0 mg/kg/injection, vehicle: Klucel (hydroxypropylcellulose) (HPC)
[5] = dose: 12.5 mg/kg/injection, vehicle: saline with Tween-80
[6] = dose: 25.0 mg/kg/injection, vehicle: saline with Tween-80
[7] = dose: 1.5 mg/kg/injection, vehicle: saline
[8] = dose: 12.5 mg/kg/injection, vehicle: Klucel (hydroxypropylcellulose) (HPC)
[9] = dose: 25.0 mg/kg/injection, vehicle: Klucel (hydroxypropylcellulose) (HPC)
[10] = dose: 200.0 mg/kg/injection, vehicle: Klucel (hydroxypropylcellulose) (HPC)

CCC(=O)OCC(=O)[C@]1(O)Cc2c(O)c3c(c(O)c2[C@@H](OC2CC(N)C(O)C(C)O2)C1)C(=O)c1c(OC)cccc1C3=O (stereo partly drawn)
T/C (dose: 0.25 mg/kg/injection, vehicle: saline): 188 % of control
T/C (dose: 0.5 mg/kg/injection, vehicle: saline): 175 % of control
T/C (dose: 1.0 mg/kg/injection, vehicle: saline): 169 % of control and 195 % of control
T/C (dose: 2.0 mg/kg/injection, vehicle: saline): 177 % of control and 260 % of control

N#CC1CCCC[N-]1.[NH-]CC[N-]CC[NH-].[Pt+4] (stereo not drawn)
T/C (dose: 6.25 mg/kg/injection, vehicle: saline): 113 % of control
T/C (dose: 12.5 mg/kg/injection, vehicle: saline): 108 % of control
T/C [1]: 91 % of control

CNC(=S)N/N=C1/c2cc(Cl)ccc2-c2c(Cl)cc(Cl)cc21
T/C [2]: 91 % of control

CCN(CCCCO)CCc1c[nH]c2ccc(OC)cc12
T/C (dose: 9.3 mg/kg/injection, vehicle: saline): 105 % of control
T/C (dose: 18.75 mg/kg/injection, vehicle: saline): 90 % of control
T/C (dose: 37.5 mg/kg/injection, vehicle: saline): 97 % of control
T/C (dose: 75.0 mg/kg/injection, vehicle: saline): 110 % of control

Cc1cccc(C(N)=S)n1
T/C [3]: 110 % of control
T/C [4]: 100 % of control

NCCc1ccc(S(=O)(=O)O)cc1[N+](=O)[O-]
T/C (dose: 50.0 mg/kg/injection, vehicle: carboxymethylcellulose (CMC)): 96 % of control
T/C (dose: 100.0 mg/kg/injection, vehicle: carboxymethylcellulose (CMC)): 86 % of control
T/C (dose: 200.0 mg/kg/injection, vehicle: carboxymethylcellulose (CMC)): 89 % of control

CNC(=S)N/N=C(/C)CCC/C(C)=N/NC(=S)NC
T/C [2]: 94 % of control
T/C [5]: 94 % of control
T/C [6]: 97 % of control

O=C(NCCCCCCNC(=O)N1CC1)N1CC1
T/C (dose: 0.3 mg/kg/injection, vehicle: saline): 101 % of control
T/C (dose: 0.6 mg/kg/injection, vehicle: saline): 96 % of control
T/C (dose: 1.2 mg/kg/injection, vehicle: saline): 103 % of control
T/C (dose: 2.4 mg/kg/injection, vehicle: saline): 92 % of control
T/C (dose: 4.8 mg/kg/injection, vehicle: saline): 103 % of control

O=S(=O)(O)O.[W]
T/C (dose: 0.75 mg/kg/injection, vehicle: saline): 87 % of control and 100 % of control
T/C [7]: 91 % of control and 101 % of control

O=C(CBr)OCCOc1ccccc1
T/C (dose: 5.0 mg/kg/injection, vehicle: saline sonified): 87 % of control
T/C (dose: 10.0 mg/kg/injection, vehicle: saline sonified): 90 % of control
T/C (dose: 20.0 mg/kg/injection, vehicle: saline sonified): 102 % of control
T/C (dose: 40.0 mg/kg/injection, vehicle: saline sonified): 92 % of control

COc1ccc(/C=C2\C(=O)OC(=O)\C2=C\c2ccc(OC)c(OC)c2)cc1OC
T/C [8]: 98 % of control
T/C [9]: 90 % of control

CCO/C=C1\SC(=S)N(c2ccccc2OC)C1=O
T/C [8]: 109 % of control
T/C [9]: 99 % of control and 117 % of control
T/C [3]: 107 % of control and 111 % of control
T/C [4]: 86 % of control and 107 % of control
T/C [10]: 111 % of control

CCCCCC/C=C/C#CCCCCCCCC(=O)O
T/C (dose: 37.5 mg/kg/injection, vehicle: Klucel (hydroxypropylcellulose) (HPC)): 107 % of control
T/C (dose: 75.0 mg/kg/injection, vehicle: Klucel (hydroxypropylcellulose) (HPC)): 99 % of control
T/C (dose: 150.0 mg/kg/injection, vehicle: Klucel (hydroxypropylcellulose) (HPC)): 101 % of control

O=S(=O)(c1ccccc1)N1CN2CCN(C2)C1
T/C [5]: 89 % of control
T/C [6]: 98 % of control
T/C (dose: 50.0 mg/kg/injection, vehicle: saline with Tween-80): 99 % of control
T/C (dose: 100.0 mg/kg/injection, vehicle: saline with Tween-80): 100 % of control
T/C (dose: 200.0 mg/kg/injection, vehicle: saline with Tween-80): 103 % of control

[Cl][Pt+2][Cl].[NH-]CC1(C[NH-])CCCCC1
T/C [7]: 190 % of control
T/C (dose: 3.0 mg/kg/injection, vehicle: saline): 208 % of control
T/C (dose: 6.0 mg/kg/injection, vehicle: saline): 208 % of control

CN(N=O)C(=O)Nc1c[nH]c(=O)[nH]c1=O
T/C (dose: 0.13 mg/kg/injection, vehicle: saline with Tween-80): 113 % of control
T/C (dose: 0.5 mg/kg/injection, vehicle: saline with Tween-80): 105 % of control
T/C (dose: 1.0 mg/kg/injection, vehicle: saline with Tween-80): 105 % of control
T/C (dose: 2.0 mg/kg/injection, vehicle: saline with Tween-80): 115 % of control
T/C (dose: 8.0 mg/kg/injection, vehicle: saline with Tween-80): 170 % of control
T/C (dose: 16.0 mg/kg/injection, vehicle: saline with Tween-80): 182 % of control
T/C (dose: 16.5 mg/kg/injection, vehicle: saline with Tween-80): 193 % of control
T/C [6]: 200 % of control
T/C [1]: 176 % of control
T/C (dose: 37.5 mg/kg/injection, vehicle: saline with Tween-80): 200 % of control

CCN(CC)c1ccc(N)cc1
T/C (dose: 5.0 mg/kg/injection, vehicle: saline): 109 % of control
T/C (dose: 10.0 mg/kg/injection, vehicle: saline): 95 % of control
T/C (dose: 20.0 mg/kg/injection, vehicle: saline): 95 % of control

NC1=NC(=O)C(c2ccccc2)O1 (stereo not drawn)
T/C [8]: 94 % of control
T/C [9]: 97 % of control
T/C [4]: 102 % of control

Brc1ccc(C[N+]23CN4CN(CN(C4)C2)C3)cc1
T/C [4]: 121 % of control
T/C [10]: 115 % of control

Cc1nc2ccccc2nc1CBr
T/C (dose: 0.4 mg/kg/injection, vehicle: saline with Tween-80): 104 % of control
T/C (dose: 0.8 mg/kg/injection, vehicle: saline with Tween-80): 104 % of control
T/C (dose: 0.8 mg/kg/injection, vehicle: saline): 95 % of control
T/C (dose: 1.6 mg/kg/injection, vehicle: Klucel (hydroxypropylcellulose) (HPC)): 93 % of control
T/C (dose: 1.6 mg/kg/injection, vehicle: saline): 93 % of control
T/C (dose: 3.12 mg/kg/injection, vehicle: Klucel (hydroxypropylcellulose) (HPC)): 100 % of control
T/C (dose: 3.2 mg/kg/injection, vehicle: saline with Tween-80): 119 % of control
T/C (dose: 3.2 mg/kg/injection, vehicle: saline): 95 % of control
T/C (dose: 6.25 mg/kg/injection, vehicle: Klucel (hydroxypropylcellulose) (HPC)): 87 % of control
T/C [2]: 113 % of control
T/C (dose: 6.3 mg/kg/injection, vehicle: saline): 102 % of control
T/C [8]: 96 % of control
T/C [5]: 108 % of control

COc1ccccc1NC(=O)Nc1ccccc1OC
T/C [4]: 89 % of control
T/C [10]: 89 % of control
T/C (dose: 400.0 mg/kg/injection, vehicle: Klucel (hydroxypropylcellulose) (HPC)): 88 % of control

Cc1cc2c(cc1C)NC(C)CC(=O)N2 (stereo not drawn)
T/C [3]: 106 % of control
T/C [4]: 108 % of control
T/C [10]: 106 % of control

CC(=O)Nc1cc(NC(C)=O)cc(N(CCCl)CCCl)c1
T/C (dose: 6.25 mg/kg/injection, vehicle: water): 119 % of control
T/C (dose: 12.5 mg/kg/injection, vehicle: water): 115 % of control
